# Results as given in US20070275100A1, “Use of gaseous nitric oxide as an anti-cancer agent” (priority 1998, published 2007).
# “And” between values parts separate entries of the source, which are not always exact repeats. Equal entries are not always repeated.
# Tests used:
# H441 = assay: MTS cell proliferation assay, 25,000 ppm gNO (Example 4), H441; type: cell-based, human
# Source text: (§1) The purpose of this example is to illustrate the tumorcidal activity of high-dosage gNO. We examined the cellular sensitivity to 25,000 ppm of gNO on 5 non-small cell lung cancer (NSCLC) cells lines by an MTS cell proliferation assay.
# (§2) Human lung cancer cell lines A549, NCI-H23, NCI-H460, HTB-58, H2170, and H441 (commercially available from American Type Culture Collection (“ATCC”), Manassas, Va.) were maintained in culture medium recommended by ATCC. All media were supplemented with 1% penicillin/streptomycin and 10% fetal bovine serum (commercially available from Invitrogen Gibco-BRL, Burlington, Ontario, Canada). […]
# (§3) After 24 hours, the A549, NCI-H23, NCI-H460, HTB-58, H2170 and H441 cells were treated with 25,000 ppm gNO or air (control) for 1 minute, 3 minutes, 6 minutes, 9 minutes, 10 minutes, 20 minutes, and 30 minutes. Immediately following treatment, the viability of the cells was determined using a colorimetric MTS (3-(4,5-dimethylthiazol-2-yl)-5-(3-carboxymethoxyphenyl)-2-(4-sulfophenyl)-2H-tetrazolium, inner salt) cell proliferation assay (commercially available as the CellTiter 960 Aqueous One Solution Cell Proliferation Assay (MTS) from Promega, Madison, Wis., USA) according to the manufacturer's protocol. […] Absorbance was measured at 490 nm for each well using a micro-plate reader (commercially available from Dynex Technologies, Chantilly, Va., USA). […]
# NCI-H23 = assay: MTS cell proliferation assay, 25,000 ppm gNO (Example 4), NCI-H23; type: cell-based, human
# Source text: as §1, §2, §3
# [1] = system: normal human fibroblast cells (NHLF); assay: Viability under 25,000 ppm gNO (Example 5), NHLF; type: cell-based
# Description: After 24 hours, the A549, NCI-H23, NCI-H460, HTB-58, H2170 and H441 cells were treated with 25,000 ppm gNO or air (control) for 1 minute, 3 minutes, 6 minutes, 9 minutes, 10 minutes, 20 minutes, and 30 minutes. Immediately following treatment, the viability of the cells was determined using a colorimetric MTS (3-(4,5-dimethylthiazol-2-yl)-5-(3-carboxymethoxyphenyl)-2-(4-sulfophenyl)-2H-tetrazolium, inner salt) cell proliferation assay (commercially available as the CellTiter 960 Aqueous One Solution Cell Proliferation Assay (MTS) from Promega, Madison, Wis., USA) according to the manufacturer's protocol. Briefly, […] of MTS solution was added to each well and the cells were incubated for 2 hours at 37° C. Absorbance was measured at 490 nm for each well using a micro-plate reader (commercially available from Dynex Technologies, Chantilly, Va., USA). The relative percentage of cell survival (viability) was calculated by dividing the absorbance of treated cells by that of control cells for each experimental time point.
# The purpose of this example is to illustrate the effects on normal human cell lines compared to the effects on cancerous cell lines of high-dosage gNO. The above study was repeated. […]
# [2] = system: infected wound on the skin; assay: Topical gNO applied to an infected wound on the skin; type: in vivo; conditions: 200 ppm gNO topically applied
# Source text: For anti-inflammatory applications of high concentrations of gNO, it is hypothesized that the high dose of NO acts as a feedback loop to down regulate iNOS, and/or acts as a antioxidant on peroxynitrite and other reactive oxygen species and/or remove the stimulus such as bacterial load all leading to the amelioration of high levels of NO or its reactants resulting in damaging pathogenesis. This hypothesis is supported by testing results of the Applicant wherein 200 ppm gNO was topically applied to an infected wound on the skin. […] It is hypothesized that the body stopped producing the “bad” NO causing pathogenic inflammation.
# [3] = system: bacteria that cause nosocomial pneumonia in the intensive care unit; conditions: continuous in vitro exposure to 200 ppm gNO; cited from earlier work
# [4] = system: A549-epithelial lung carcinoma cells; assay: MTS proliferation assay, A549 cells under continuous gNO exposure (Example 1); type: cell-based, human; conditions: for Corrected Average: blank subtracted; for survivability: 24 hours continuous exposure, compared to air (control)
# Description: (gNO) 200 ppm and 350 ppm compared to air (control) on the survival of a representative line of cancer cells. Cancer cell lines (A549-epithelial lung carcinoma cells and H460-epithelial metastatic; large cell lung cancer cells) were prepared in F12 medium and suspended in six 96-well plates (3 treatment and 3 controls). […] The plates then were removed and cell viability assessed by an MTS proliferation assay.
# When exposed to 350 ppm of gNO, however, cancer cell survival rates decrease dramatically.
# [5] = 200 ppm NO, 1 hour, F12 medium, listed as NO
# [6] = 200 ppm NO, 1 hour, HBSS medium
# [7] = 200 ppm NO, 2.5 hours, F12 medium
# [8] = 200 ppm NO, 2.5 hours, F12 medium, listed as NO
# [9] = 200 ppm NO, 2.5 hours, HBSS medium
# [10] = 200 ppm NO, 3.5 hours, F12 medium
# [11] = 200 ppm NO, 3.5 hours, F12 medium, listed as NO
# [12] = 200 ppm NO, 3.5 hours, HBSS medium
# [13] = 350 ppm NO, 2 hours, F12 medium
# [14] = 350 ppm NO, 2 hours, F12 medium, listed as NO
compound,measurement,setting,value
"[N]=O [gNO, nitric oxide]",IC50 (exposure time),H441,about 7 minutes
same,viability at 25000 ppm,"H441; Homo sapiens, NCI-H441, 0.15 h, at 9 minutes",~17%
same,IC50 (exposure time),NCI-H23,about 6 minutes
same,viability at 25000 ppm,"NCI-H23; Homo sapiens, NCI-H23, 0.15 h, at 9 minutes",~24%
same,viability,"[1]; after 6 minutes, FIG. 8 C",about 30%
same,viability of normal lung fibroblasts,[1]; after 15 minutes of exposure,30%
same,bacterial load,[2],significantly reduced
same,inflammatory bodies (histological results),[2],significant reduction
same,serum NOX levels,[2]; compared to the infected control,lower
same,time to cytocidal effect,[3],≤ 5 h
same,Average,"[4]; 200 ppm NO, 1 hour, F12 medium",0.852
same,Survival,"[4]; 200 ppm NO, 1 hour, F12 medium",up to 92%
same,Corrected Average,"[4]; 200 ppm NO, 1 hour, F12 medium",0.621
same,"MTS assay reading, individual wells",[4]; [5],0.842 and 0.955 and 0.793 and 0.818 and 0.828 and 0.78 and 0.805 and 0.936 and 0.959 and 0.91 and 0.827 and 0.8 and 0.795 and 0.759 and 0.945 and 0.886
same,Survival,[4]; [5],92%
same,Average,[4]; [6],0.06
same,"MTS assay reading, individual wells",[4]; [6],0.062 (2×) and 0.058 (2×) and 0.057 (2×) and 0.056 (2×) and 0.06 (3×) and 0.067 (2×) and 0.059 and 0.055
same,Survival,[4]; [6],0%
same,Corrected Average,[4]; [6],0
same,Average,[4]; [7],1.276
same,Survival,[4]; [7],up to 90%
same,Corrected Average,[4]; [7],0.918
same,"MTS assay reading, individual wells",[4]; [8],1.261 and 1.178 and 1.33 and 1.422 and 1.454 and 1.458 and 1.354 and 1.105 and 1.348 and 1.082 and 1.329 and 1.237 and 1.272 and 0.995 and 1.284 and 1.299
same,Survival,[4]; [8],90%
same,Average,[4]; [9],0.06
same,"MTS assay reading, individual wells",[4]; [9],0.063 and 0.059 (3×) and 0.058 (2×) and 0.061 and 0.06 (2×) and 0.069 (2×) and 0.057 (2×) and 0.056 and 0.062
same,Survival,[4]; [9],0%
same,Corrected Average,[4]; [9],0
same,Average,[4]; [10],1.529
same,Survival,[4]; [10],up to 87%
same,Corrected Average,[4]; [10],1.059
same,"MTS assay reading, individual wells",[4]; [11],1.587 and 1.525 and 1.665 and 1.444 and 1.642 and 1.332 and 1.639 and 1.551 and 1.567 and 1.863 and 1.335 and 1.325 and 1.575 and 1.227 and 1.561 and 1.625
same,Survival,[4]; [11],87%
same,Average,[4]; [12],0.061
same,"MTS assay reading, individual wells",[4]; [12],0.063 (2×) and 0.059 (3×) and 0.058 (3×) and 0.061 (2×) and 0.06 and 0.069 and 0.057 and 0.056 and 0.07
same,Survival,[4]; [12],0%
same,Corrected Average,[4]; [12],0
same,survivability,[4]; 200 ppm gNO,greater than 90%
same,Average,[4]; [13],0.110
same,Survival,[4]; [13],about 2%
same,Corrected Average,[4]; [13],0.009
same,"MTS assay reading, individual wells",[4]; [14],0.104 and 0.115 and 0.106 (2×) and 0.110 and 0.116 and 0.119
same,Survival,[4]; [14],1%
same,survivability,[4]; 350 ppm gNO,1%
